{
  "source": "paper PMC5762315",
  "about": "“Inhibition of polo-like kinase 4 (PLK4): a new therapeutic option for rhabdoid tumors and pediatric medulloblastoma” (Oncotarget, 2017)",
  "assay_in_all_cases": "LanthaScreen Eu Kinase Binding Assay, panel of 486 biochemical kinase assays",
  "key": {"various kinases [1]": {"target": "various kinases (Homo sapiens, UniProt Q9UBE8)", "sequence (Q9UBE8 whole entry)": "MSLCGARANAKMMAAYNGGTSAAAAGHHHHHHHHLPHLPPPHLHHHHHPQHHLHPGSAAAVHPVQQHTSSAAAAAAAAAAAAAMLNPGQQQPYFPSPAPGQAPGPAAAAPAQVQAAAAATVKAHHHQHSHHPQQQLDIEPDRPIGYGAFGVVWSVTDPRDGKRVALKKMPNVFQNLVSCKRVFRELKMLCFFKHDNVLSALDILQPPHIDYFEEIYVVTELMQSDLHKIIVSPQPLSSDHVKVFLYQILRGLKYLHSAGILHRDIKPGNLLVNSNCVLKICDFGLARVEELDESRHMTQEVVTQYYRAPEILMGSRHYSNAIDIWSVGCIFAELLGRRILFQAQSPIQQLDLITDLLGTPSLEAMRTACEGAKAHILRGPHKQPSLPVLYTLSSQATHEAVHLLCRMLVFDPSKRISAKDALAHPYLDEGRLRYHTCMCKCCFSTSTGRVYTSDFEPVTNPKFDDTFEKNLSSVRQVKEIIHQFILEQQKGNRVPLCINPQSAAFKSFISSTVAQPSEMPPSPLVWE", "settings": "NLK"}, "various kinases [2]": {"target": "various kinases (Homo sapiens, UniProt Q9UM73, F1174L)", "settings": "ALK F1174L"}, "various kinases [3]": {"target": "various kinases (Homo sapiens, UniProt P15056)", "settings": "BRAF"}, "various kinases [4]": {"target": "various kinases (Homo sapiens, UniProt Q02750, S218D/S222D)", "sequence (Q02750 whole entry S218D/S222D)": "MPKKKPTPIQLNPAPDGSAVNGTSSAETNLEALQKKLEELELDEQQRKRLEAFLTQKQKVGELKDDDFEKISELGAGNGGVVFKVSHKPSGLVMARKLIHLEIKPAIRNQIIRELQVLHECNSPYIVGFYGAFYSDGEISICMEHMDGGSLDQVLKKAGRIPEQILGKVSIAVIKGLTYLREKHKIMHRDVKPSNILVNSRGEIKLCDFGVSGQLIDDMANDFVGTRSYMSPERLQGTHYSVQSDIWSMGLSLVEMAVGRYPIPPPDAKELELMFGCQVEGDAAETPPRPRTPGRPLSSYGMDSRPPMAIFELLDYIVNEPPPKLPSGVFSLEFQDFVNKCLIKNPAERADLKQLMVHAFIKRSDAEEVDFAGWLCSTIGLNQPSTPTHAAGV", "settings": "MAP2K1 (MEK1) S218D S222D"}, "various kinases [5]": {"target": "various kinases (Homo sapiens, UniProt P10721, N822K)", "sequence (P10721 26-976 N822K)": "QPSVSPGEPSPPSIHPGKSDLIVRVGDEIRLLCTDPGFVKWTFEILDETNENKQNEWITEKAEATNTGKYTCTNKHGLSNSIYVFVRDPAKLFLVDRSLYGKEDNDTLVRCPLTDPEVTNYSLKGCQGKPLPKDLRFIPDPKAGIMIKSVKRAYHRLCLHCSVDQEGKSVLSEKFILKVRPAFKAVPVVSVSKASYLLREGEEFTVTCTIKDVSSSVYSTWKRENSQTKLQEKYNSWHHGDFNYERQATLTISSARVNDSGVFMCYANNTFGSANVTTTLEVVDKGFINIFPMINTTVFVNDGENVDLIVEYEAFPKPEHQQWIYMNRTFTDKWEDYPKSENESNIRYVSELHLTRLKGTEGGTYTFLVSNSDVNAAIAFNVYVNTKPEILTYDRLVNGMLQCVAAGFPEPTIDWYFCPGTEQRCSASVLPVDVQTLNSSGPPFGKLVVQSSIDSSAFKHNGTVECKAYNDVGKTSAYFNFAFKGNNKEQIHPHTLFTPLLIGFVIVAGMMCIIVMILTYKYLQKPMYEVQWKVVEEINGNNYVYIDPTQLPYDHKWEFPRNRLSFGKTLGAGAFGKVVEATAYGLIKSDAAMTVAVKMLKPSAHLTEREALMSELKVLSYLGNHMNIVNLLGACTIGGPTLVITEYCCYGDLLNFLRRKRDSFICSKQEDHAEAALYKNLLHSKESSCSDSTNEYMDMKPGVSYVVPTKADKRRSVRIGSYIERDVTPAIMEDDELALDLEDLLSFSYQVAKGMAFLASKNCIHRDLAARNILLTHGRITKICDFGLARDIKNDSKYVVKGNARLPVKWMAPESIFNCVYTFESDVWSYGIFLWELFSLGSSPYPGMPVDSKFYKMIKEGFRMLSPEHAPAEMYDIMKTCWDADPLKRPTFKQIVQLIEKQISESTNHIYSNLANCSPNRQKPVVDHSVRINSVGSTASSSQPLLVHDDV", "settings": "KIT N822K"}, "various kinases [6]": {"target": "various kinases (Homo sapiens, UniProt P54646)", "sequence (P54646 whole entry)": "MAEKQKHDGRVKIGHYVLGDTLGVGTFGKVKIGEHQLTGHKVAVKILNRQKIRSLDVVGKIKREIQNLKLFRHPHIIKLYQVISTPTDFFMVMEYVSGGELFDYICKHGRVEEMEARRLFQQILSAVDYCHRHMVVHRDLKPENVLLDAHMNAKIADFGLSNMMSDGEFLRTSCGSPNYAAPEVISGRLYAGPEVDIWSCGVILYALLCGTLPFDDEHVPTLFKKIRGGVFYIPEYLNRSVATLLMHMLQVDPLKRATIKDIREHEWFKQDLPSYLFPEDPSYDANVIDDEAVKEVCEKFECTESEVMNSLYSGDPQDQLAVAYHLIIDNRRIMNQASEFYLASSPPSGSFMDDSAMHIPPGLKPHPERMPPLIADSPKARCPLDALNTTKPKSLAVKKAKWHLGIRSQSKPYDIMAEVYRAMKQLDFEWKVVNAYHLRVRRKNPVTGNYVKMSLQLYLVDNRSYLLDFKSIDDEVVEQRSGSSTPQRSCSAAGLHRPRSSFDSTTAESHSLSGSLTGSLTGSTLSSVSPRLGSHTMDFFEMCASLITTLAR"}, "various kinases [7]": {"target": "various kinases (Homo sapiens, UniProt P52564, S207E/T211E)", "settings": "MAP2K6 (MKK6) S207E T211E"}, "various kinases [8]": {"target": "T1, various kinases (Homo sapiens, UniProt P33981)", "T1 sequence (P33981 1-857)": "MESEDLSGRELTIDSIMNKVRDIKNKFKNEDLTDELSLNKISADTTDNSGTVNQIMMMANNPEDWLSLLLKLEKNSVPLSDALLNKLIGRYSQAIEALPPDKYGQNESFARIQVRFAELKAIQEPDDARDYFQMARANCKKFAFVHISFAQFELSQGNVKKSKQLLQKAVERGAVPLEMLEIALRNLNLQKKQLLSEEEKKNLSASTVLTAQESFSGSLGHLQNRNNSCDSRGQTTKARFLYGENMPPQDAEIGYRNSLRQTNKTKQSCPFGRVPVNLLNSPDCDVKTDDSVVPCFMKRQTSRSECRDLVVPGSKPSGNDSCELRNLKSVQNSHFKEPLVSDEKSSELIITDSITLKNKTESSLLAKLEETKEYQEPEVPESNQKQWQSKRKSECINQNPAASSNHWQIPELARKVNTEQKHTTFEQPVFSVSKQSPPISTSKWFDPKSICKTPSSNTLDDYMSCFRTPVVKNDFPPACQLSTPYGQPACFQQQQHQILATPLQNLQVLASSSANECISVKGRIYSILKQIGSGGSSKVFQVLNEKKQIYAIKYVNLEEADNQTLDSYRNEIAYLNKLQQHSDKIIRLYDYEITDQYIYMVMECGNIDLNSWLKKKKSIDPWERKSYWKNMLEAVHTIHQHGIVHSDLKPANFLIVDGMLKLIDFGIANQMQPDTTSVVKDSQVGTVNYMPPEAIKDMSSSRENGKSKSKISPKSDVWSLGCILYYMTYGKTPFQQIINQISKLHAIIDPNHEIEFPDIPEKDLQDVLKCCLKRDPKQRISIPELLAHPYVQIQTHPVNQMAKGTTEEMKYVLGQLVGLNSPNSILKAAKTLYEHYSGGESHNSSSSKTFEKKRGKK", "settings": "kinase TTK; LanthaScreen Binding"}, "various kinases [9]": {"target": "various kinases (Homo sapiens, UniProt Q99683)", "settings": "MAP3K5 (ASK1)"}, "various kinases [10]": {"target": "T2, various kinases (Homo sapiens, UniProt O75385)", "T2 sequence (O75385 1-1050)": "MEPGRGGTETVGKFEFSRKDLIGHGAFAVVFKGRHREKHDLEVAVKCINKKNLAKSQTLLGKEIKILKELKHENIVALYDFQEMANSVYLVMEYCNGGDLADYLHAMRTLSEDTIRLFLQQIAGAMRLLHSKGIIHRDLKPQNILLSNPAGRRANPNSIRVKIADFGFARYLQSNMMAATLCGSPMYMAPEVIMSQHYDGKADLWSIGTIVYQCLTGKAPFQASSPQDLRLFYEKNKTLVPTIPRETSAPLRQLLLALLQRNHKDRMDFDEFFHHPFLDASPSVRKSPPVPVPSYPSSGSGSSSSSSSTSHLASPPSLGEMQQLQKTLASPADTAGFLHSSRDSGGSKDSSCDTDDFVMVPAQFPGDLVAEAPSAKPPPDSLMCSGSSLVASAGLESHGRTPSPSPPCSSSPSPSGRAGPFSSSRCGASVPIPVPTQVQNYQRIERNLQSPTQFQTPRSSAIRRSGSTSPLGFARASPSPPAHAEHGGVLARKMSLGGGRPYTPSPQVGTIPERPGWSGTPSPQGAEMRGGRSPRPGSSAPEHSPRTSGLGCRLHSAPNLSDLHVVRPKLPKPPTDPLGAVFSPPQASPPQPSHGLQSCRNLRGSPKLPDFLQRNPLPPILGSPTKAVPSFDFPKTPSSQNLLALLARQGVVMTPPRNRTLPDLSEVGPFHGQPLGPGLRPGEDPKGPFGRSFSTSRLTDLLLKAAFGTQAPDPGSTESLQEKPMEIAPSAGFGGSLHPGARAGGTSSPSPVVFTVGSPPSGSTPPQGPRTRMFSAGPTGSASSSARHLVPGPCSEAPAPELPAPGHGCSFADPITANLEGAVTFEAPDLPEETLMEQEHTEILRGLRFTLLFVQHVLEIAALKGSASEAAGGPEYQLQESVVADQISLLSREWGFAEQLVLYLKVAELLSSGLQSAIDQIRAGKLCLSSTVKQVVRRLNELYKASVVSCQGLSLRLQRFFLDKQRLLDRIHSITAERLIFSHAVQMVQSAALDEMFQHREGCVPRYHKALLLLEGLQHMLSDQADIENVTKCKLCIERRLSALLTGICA", "settings": "kinase ULK1; LanthaScreen Binding"}, "various kinases [11]": {"target": "various kinases (Homo sapiens, UniProt Q86UX6)", "sequence (Q86UX6 whole entry)": "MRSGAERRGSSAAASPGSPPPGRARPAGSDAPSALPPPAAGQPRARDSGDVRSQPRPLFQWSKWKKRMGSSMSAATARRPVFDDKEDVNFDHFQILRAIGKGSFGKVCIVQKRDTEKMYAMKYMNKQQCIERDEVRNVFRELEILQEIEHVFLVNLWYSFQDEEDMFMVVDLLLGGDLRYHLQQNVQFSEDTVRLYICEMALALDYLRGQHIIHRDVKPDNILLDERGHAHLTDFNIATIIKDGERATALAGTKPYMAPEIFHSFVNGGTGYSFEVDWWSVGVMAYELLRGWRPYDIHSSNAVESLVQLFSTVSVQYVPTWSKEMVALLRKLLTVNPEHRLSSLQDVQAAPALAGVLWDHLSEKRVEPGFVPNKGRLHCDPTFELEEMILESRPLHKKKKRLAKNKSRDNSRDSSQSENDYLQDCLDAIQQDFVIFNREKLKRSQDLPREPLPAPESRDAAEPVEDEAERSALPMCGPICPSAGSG", "settings": "kinase STK32C (YANK3); LanthaScreen Binding"}, "various kinases [12]": {"target": "various kinases (Homo sapiens, UniProt Q9Y572)", "sequence (Q9Y572 whole entry)": "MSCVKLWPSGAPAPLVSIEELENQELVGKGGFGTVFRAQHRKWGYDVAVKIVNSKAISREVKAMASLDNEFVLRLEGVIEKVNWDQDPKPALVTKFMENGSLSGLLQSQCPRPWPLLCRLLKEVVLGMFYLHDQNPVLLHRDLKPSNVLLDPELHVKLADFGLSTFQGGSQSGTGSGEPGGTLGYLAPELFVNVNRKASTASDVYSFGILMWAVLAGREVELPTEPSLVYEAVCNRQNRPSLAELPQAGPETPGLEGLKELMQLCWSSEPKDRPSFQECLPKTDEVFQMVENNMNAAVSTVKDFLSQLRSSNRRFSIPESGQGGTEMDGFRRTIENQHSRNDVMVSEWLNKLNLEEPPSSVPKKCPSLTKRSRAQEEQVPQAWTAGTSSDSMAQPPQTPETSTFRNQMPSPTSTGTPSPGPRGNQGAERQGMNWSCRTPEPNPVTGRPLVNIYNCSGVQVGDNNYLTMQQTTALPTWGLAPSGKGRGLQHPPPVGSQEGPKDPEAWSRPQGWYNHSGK", "settings": "kinase RIPK3; LanthaScreen Binding"}, "various kinases [13]": {"target": "various kinases (Homo sapiens, UniProt Q13131)", "sequence (Q13131 whole entry)": "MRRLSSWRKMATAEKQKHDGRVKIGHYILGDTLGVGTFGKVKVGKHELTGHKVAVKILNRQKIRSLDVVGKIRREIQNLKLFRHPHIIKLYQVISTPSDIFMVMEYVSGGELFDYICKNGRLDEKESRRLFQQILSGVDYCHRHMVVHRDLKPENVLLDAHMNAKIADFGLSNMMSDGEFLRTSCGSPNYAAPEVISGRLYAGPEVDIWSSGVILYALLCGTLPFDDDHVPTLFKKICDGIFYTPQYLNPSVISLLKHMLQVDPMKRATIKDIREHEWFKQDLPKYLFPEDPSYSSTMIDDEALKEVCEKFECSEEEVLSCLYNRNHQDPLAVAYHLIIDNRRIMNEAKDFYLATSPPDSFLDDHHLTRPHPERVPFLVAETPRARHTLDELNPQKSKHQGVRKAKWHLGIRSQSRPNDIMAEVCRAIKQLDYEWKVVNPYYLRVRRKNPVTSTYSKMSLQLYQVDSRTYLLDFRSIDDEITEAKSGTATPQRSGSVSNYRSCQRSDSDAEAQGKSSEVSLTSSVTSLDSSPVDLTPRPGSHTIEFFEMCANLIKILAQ"}, "various kinases [14]": {"target": "various kinases (Homo sapiens, UniProt Q32MK0)", "sequence (Q32MK0 whole entry)": "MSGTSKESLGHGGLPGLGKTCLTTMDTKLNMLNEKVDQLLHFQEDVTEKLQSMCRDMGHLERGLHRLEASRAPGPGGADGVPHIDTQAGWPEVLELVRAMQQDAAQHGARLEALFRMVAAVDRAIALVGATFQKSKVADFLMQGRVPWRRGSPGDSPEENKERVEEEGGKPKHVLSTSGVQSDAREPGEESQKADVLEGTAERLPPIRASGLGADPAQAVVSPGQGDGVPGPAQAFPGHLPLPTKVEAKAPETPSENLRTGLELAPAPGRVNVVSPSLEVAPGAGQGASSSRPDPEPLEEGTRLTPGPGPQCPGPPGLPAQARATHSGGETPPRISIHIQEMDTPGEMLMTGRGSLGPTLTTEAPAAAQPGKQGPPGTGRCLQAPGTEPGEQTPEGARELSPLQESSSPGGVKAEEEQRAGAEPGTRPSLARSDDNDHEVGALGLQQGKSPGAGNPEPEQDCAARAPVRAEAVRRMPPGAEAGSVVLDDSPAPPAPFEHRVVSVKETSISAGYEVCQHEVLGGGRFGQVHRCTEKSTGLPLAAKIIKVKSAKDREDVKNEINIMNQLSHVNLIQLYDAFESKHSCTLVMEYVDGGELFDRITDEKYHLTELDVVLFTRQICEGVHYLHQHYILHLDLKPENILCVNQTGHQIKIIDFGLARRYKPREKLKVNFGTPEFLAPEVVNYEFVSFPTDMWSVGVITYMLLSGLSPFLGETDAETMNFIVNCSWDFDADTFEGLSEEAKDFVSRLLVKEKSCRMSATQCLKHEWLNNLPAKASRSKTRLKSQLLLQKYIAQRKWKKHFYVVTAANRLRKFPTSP", "settings": "MLCK (MLCK2)"}},
  "note": "Where “and” joins values, the source holds several entries; their conditions need not be identical. Equal values may be shown once.",
  "data": [
    {"smiles": "COc1ccc2c(c1)[C@]1(C[C@H]1c1ccc3c(/C=C/c4ccc(CN5C[C@@H](C)O[C@@H](C)C5)cc4)n[nH]c3c1)C(=O)N2", "note": "[CFI-400945]", "values": [
      {"measurement": "% Inhibition", "setting": "various kinases [1]", "result": "-9% and -6%"},
      {"measurement": "% Inhibition", "setting": "various kinases [2]", "result": "52% and 50%"},
      {"measurement": "% Inhibition", "setting": "various kinases [3]", "result": "0% and 6%"},
      {"measurement": "% Inhibition", "setting": "various kinases [4]", "result": "4% and 10%"},
      {"measurement": "% Inhibition", "setting": "various kinases [5]", "result": "6% and 3%"},
      {"measurement": "% Inhibition", "setting": "various kinases [6]; AMPK (A2/B2/G1)", "result": "14% and 19%"},
      {"measurement": "% Inhibition", "setting": "various kinases [6]; AMPK (A2/B2/G2)", "result": "14% and 12%"},
      {"measurement": "% Inhibition", "setting": "various kinases [7]", "result": "9% and 8%"},
      {"measurement": "% Inhibition Average", "setting": "various kinases [8]", "result": 6, "unit": "%"},
      {"measurement": "% Inhibition Duplicate #1", "setting": "various kinases [8]", "result": 4, "unit": "%"},
      {"measurement": "% Inhibition Duplicate #2", "setting": "various kinases [8]", "result": 7, "unit": "%"},
      {"measurement": "% Inhibition", "setting": "various kinases [9]", "result": "-6% and -3%"},
      {"measurement": "% Inhibition Average", "setting": "various kinases [10]", "result": 3, "unit": "%"},
      {"measurement": "% Inhibition Duplicate #1", "setting": "various kinases [10]", "result": 4, "unit": "%"},
      {"measurement": "% Inhibition Duplicate #2", "setting": "various kinases [10]", "result": 2, "unit": "%"},
      {"measurement": "% Inhibition Average", "setting": "various kinases [11]", "result": 15, "unit": "%"},
      {"measurement": "% Inhibition Duplicate #1", "setting": "various kinases [11]", "result": 14, "unit": "%"},
      {"measurement": "% Inhibition Duplicate #2", "setting": "various kinases [11]", "result": 17, "unit": "%"},
      {"measurement": "% Inhibition Average", "setting": "various kinases [12]", "result": 11, "unit": "%"},
      {"measurement": "% Inhibition Duplicate #1", "setting": "various kinases [12]", "result": 11, "unit": "%"},
      {"measurement": "% Inhibition Duplicate #2", "setting": "various kinases [12]", "result": 11, "unit": "%"},
      {"measurement": "% Inhibition", "setting": "various kinases [13]; AMPK (A1/B1/G2)", "result": "13% and 9%"},
      {"measurement": "% Inhibition", "setting": "various kinases [13]; AMPK (A1/B1/G3)", "result": "10% and 15%"},
      {"measurement": "% Inhibition", "setting": "various kinases [13]; AMPK (A1/B2/G1)", "result": "14% and 13%"},
      {"measurement": "% Inhibition", "setting": "various kinases [14]", "result": "1% and 6%"}
    ]}
  ]
}
